Read-outs that look alike come from different tables or passages of the source.
Legend:
L. major [1] = assay: ChEMBL dataset of pIC50 values against L. major used for the RF model (Table S1); format: cell-based, Leishmania major; also: call rule not given here
L. major [2] = system: L. major; design: method as in ChEMBL; conditions: ref ChEMBL, cited from earlier work
[3] = Active/Inactive class assigned to the ChEMBL pIC50 value for Random forest model construction, ref ChEMBL
[4] = ChemBL structures with pIC50 values used for Random forest model construction, L. major
[5] = Active/Inactive class assigned to ChemBL structures for Random forest model construction (Table S1)
[6] = ChemBL structures with pIC50 values used for Random forest model construction (Table S1)

| SMILES | Outcome (L. major [1]; [3]) | pIC50 Value (L. major [2]; [4]) | Outcome (L. major [1]; [5]) | pIC50 Value (L. major [2]; [6]) |
| --- | --- | --- | --- | --- |
| C[C@]12CC[C@H](O)C[C@@H]1CC[C@@H]1[C@@H]2CC[C@@]2(C)[C@H]1CC[C@@H]2[C@@](C)(O)c1ccccn1 [CHEMBL1214311] | Inactive | 4.00 |  |  |
| C[C@]12CC[C@H](O)C[C@@H]1CC[C@@H]1[C@@H]2CC[C@@]2(C)[C@H]1CC[C@@H]2[C@@](C)(O)c1cccnc1 [CHEMBL1214312] | Inactive | 4.00 |  |  |
| CN1CCN(c2ccnc3cc(Cl)ccc23)CC1 [CHEMBL1255667] | Inactive | 4.00 |  |  |
| c1ccc2c(-c3cnc4n3CCS4)c[nH]c2c1 [CHEMBL1255759] | Inactive | 4.11 |  |  |
| CCc1nnc(N2C(=O)C3C4C=CC(C4)C3C2=O)s1 (centres unmarked) [CHEMBL1255760] | Inactive | 4.00 |  |  |
| Cc1ccc2c(n1)[nH]c1ccccc12 [CHEMBL1255761] | Inactive | 4.01 |  |  |
| CCOC(=O)C/C(=N/O)c1nnn[nH]1 [CHEMBL1255762] | Inactive | 4.00 |  |  |
| Cc1ccc2nc(CCC3CCCCC3)[nH]c2c1 [CHEMBL1255797] | Inactive | 4.63 |  |  |
| COc1ccc2c(=O)c(C(=O)O)csc2c1 [CHEMBL1255798] | Inactive | 4.00 |  |  |
| Cc1ccc(C(=O)N2CCN(c3ccnc4cc(Cl)ccc34)CC2)cc1 [CHEMBL1256729] | Inactive | 4.15 |  |  |
| CC(C)(C)c1ccc(CN2CCN(c3ccnc4cc(Cl)ccc34)CC2)cc1 [CHEMBL1256730] | Inactive | 4.21 |  |  |
| Clc1ccc2c(N3CCN(Cc4ccccc4)CC3)ccnc2c1 [CHEMBL1256765] | Inactive | 4.21 |  |  |
| Clc1ccc2c(N3CCN(Cc4ccc(-c5ccccc5)cc4)CC3)ccnc2c1 [CHEMBL1256766] | Inactive | 4.49 |  |  |
| COc1ccc(-c2nnc3sc(-c4ccc(F)cc4)nn23)cc1 [CHEMBL1256800] | Inactive | 4.00 |  |  |
| Clc1ccc(C2=NN3C(c4ccccc4)=NNC3S2)c(Cl)c1 (centres unmarked) [CHEMBL1256801] | Inactive | 4.00 |  |  |
| Cc1ccccc1Cc1nnc2sc(-c3ccc(Cl)cc3)nn12 [CHEMBL1256802] | Inactive | 4.00 |  |  |
| CCCc1cc(-c2nn3c(-c4ccccc4)nnc3s2)n(CC)n1 [CHEMBL1256824] | Inactive | 4.00 |  |  |
| Fc1cccc(Cl)c1Cc1nn2c(-c3ccccc3)nnc2s1 [CHEMBL1256825] | Inactive | 4.00 |  |  |
| CCn1nc(C)cc1-c1nnc2sc(-c3ccc(C)cc3)nn12 [CHEMBL1256826] | Inactive | 4.05 |  |  |
| Cc1cc(C)nc(SCc2nn3c(-c4ccccc4)nnc3s2)n1 [CHEMBL1256856] | Inactive | 4.00 |  |  |
| CCn1nc(C)cc1-c1nnc2sc(Cc3c(F)cccc3Cl)nn12 [CHEMBL1256857] | Inactive | 4.00 |  |  |
| Cc1ccc(/C=C2/C(=O)NN(c3ccc(F)cc3)C2=O)o1 [CHEMBL1256858] | Inactive | 4.04 |  |  |
| Cc1ccc(N2NC(=O)/C(=C/c3cc4c(cc3Cl)OCO4)C2=O)cc1C [CHEMBL1256889] | Inactive | 4.52 |  |  |
| COc1ccc(-c2csc3c2C2=NCCN2C=N3)cc1OC [CHEMBL1256890] | Inactive | 4.00 |  |  |
| NP(=O)(OCc1ccccc1[N+](=O)[O-])N(CCCl)CCCl (centres unmarked) [CHEMBL1256928] | Inactive | 4.52 |  |  |
| COC(=O)c1c(O)c(C#N)c2n(c1=O)CCc1cc(OC)c(OC)cc1-2 [CHEMBL1256930] | Inactive | 4.28 |  |  |
| CN(C)Cc1c(O)ccc2c(=O)c(-c3cnn(-c4ccccc4)c3)coc12 [CHEMBL1256931] | Inactive | 4.13 |  |  |
| NP(=O)(OCc1cccc([N+](=O)[O-])c1)N(CCCl)CCCl (centres unmarked) [CHEMBL1256964] | Inactive | 4.52 |  |  |

| SMILES | Outcome (L. major [1]; [3]) | pIC50 Value (L. major [2]; [4]) | Outcome (L. major [1]; [5]) | pIC50 Value (L. major [2]; [6]) |
| --- | --- | --- | --- | --- |
| COc1cc([N+](=O)[O-])ccc1COP(N)(=O)N(CCCl)CCCl (centres unmarked) [CHEMBL1256965] | Inactive | 4.81 |  |  |
| COc1cc(COP(N)(=O)N(CCCl)CCCl)ccc1[N+](=O)[O-] (centres unmarked) [CHEMBL1256966] | Inactive | 4.52 |  |  |
| Cc1cc(COP(N)(=O)N(CCCl)CCCl)ccc1[N+](=O)[O-] (centres unmarked) [CHEMBL1256989] | Inactive | 4.52 |  |  |
| NP(=O)(OCc1ccc([N+](=O)[O-])c(F)c1)N(CCCl)CCCl (centres unmarked) [CHEMBL1256990] | Active | 5.04 |  |  |
| NP(=O)(OCc1ccc([N+](=O)[O-])cc1F)N(CCCl)CCCl (centres unmarked) [CHEMBL1256991] |  |  | Active | 5.33 |
| NP(=O)(OCc1ccc([N+](=O)[O-])cc1C(F)(F)F)N(CCCl)CCCl (centres unmarked) [CHEMBL1257016] | Active | 5.23 |  |  |
| NP(=O)(OCc1ccc([N+](=O)[O-])cc1Cl)N(CCCl)CCCl (centres unmarked) [CHEMBL1257017] |  |  | Active | 5.51 |
| NP(=O)(OCc1c(F)cc([N+](=O)[O-])cc1F)N(CCCl)CCCl (centres unmarked) [CHEMBL1257018] |  |  | Active | 5.89 |
| CC1=N[C@H](C)Cc2c(-c3ccc(C(F)(F)F)cc3)ccc(O)c21 [CHEMBL1275619] | Inactive | 4.00 |  |  |
| CC1(C)Cc2c(Br)ccc(O)c2C=N1 [CHEMBL1275726] | Inactive | 4.00 |  |  |
| CC(C)Oc1cc(NC(=N)c2ccccn2)ccc1-c1ccc(-c2ccc(NC(=N)c3ccccn3)cc2OC(C)C)o1 [CHEMBL1275764] |  |  | Active | 7.85 |
| COc1ccc(-c2ccccc2)c2c1C(C)=N[C@H](C)C2 [CHEMBL1275787] | Inactive | 4.00 |  |  |
| CC1=N[C@H](C)Cc2c(-c3ccccc3)ccc(O)c21 [CHEMBL1275788] | Inactive | 4.00 |  |  |
| CC1=N[C@H](C)Cc2c(-c3ccc(C)cc3)ccc(O)c21 [CHEMBL1275822] | Inactive | 4.07 |  |  |
| CC1=N[C@H](C)Cc2c(-c3ccc(Cl)cc3)ccc(O)c21 [CHEMBL1275824] | Inactive | 4.00 |  |  |
| CC1=N[C@H](C)Cc2c(-c3cccc(Cl)c3)ccc(O)c21 [CHEMBL1275866] | Inactive | 4.28 |  |  |
| CC1=C(C(=O)OC(C)C)C(c2cccc([N+](=O)[O-])c2)C(C(=O)OC2CN(C(c3ccccc3)c3ccccc3)C2)=C(N)N1 (centres unmarked) [CHEMBL1275868] | Inactive | 4.77 |  |  |
| CCOc1cc(NC(=N)c2ccccn2)ccc1-c1ccc(-c2ccc(NC(=N)c3ccccn3)cc2OCC)o1 [CHEMBL1276549] |  |  | Active | 7.59 |
| CC1=N[C@H](C)Cc2c(-c3cccc4ccccc34)ccc(O)c21 [CHEMBL1276916] | Inactive | 4.87 |  |  |
| COc1ccc(-c2ccc3ccccc3c2)c2c1C(C)=N[C@H](C)C2 [CHEMBL1276917] | Inactive | 4.55 |  |  |
| CC1=N[C@H](C)Cc2c(-c3ccc4ccccc4c3)ccc(O)c21 [CHEMBL1276918] | Inactive | 4.46 |  |  |
| COc1ccc(-c2ccc(OC)c3ccccc23)c2c1C=NC(C)(C)C2 [CHEMBL1277742] | Inactive | 4.43 |  |  |
| COc1ccc(-c2ccc(OC)c3ccccc23)c2c1C=NCC2 [CHEMBL1277828] | Inactive | 4.33 |  |  |
| COc1cccc2c(-c3ccc(O)c4c3CC(C)(C)N=C4)ccc(O)c12 [CHEMBL1277993] | Inactive | 4.00 |  |  |
| COc1ccc(-c2ccc(C)cc2)c2c1C(C)=N[C@H](C)C2 [CHEMBL1278083] | Inactive | 4.08 |  |  |
| COc1ccc(-c2ccc(C(F)(F)F)cc2)c2c1C(C)=N[C@H](C)C2 [CHEMBL1278172] | Inactive | 4.00 |  |  |
| O=C(CCl)N1c2ccccc2CCc2ccccc21 [CHEMBL1314125] | Inactive | 4.36 |  |  |

Reference: paper PMC8196580, “Identification of Kaurane-Type Diterpenes as Inhibitors of Leishmania Pteridine Reductase I” (Molecules, 2021)
